In PMC5547380, “Molecular cloning and characterization of protein disulfide isomerase of Brugia malayi, a human lymphatic filarial parasite” (EXCLI Journal, 2017):
Where two headings read alike, the source gives them in different places.

Target: T1, Brugia malayi Protein disulfide isomerase (BmPDI) (Brugia malayi, UniProt A0A1S0S010)
T1 construct: gene pdi; recombinant 6XHis-tagged BmPDI expressed in E. coli
Test: refolding of reduced denatured RNase A, RNA hydrolysis followed by absorbance at […] nm
Assay type: biochemical

Row | SMILES | IC50 (read-out: IC50) | IC50
1 | O=C1C=CC(=C(c2ccc(O)cc2)c2ccc(O)cc2)C=C1 [aurin] | 17.6 µM | –
2 | NC[C@H]1O[C@H](O[C@H]2[C@H](O[C@@H]3O[C@H](CO)[C@@H](O)[C@H]3O)[C@@H](O)[C@H](N)C[C@@H]2N)[C@H](N)[C@@H](O)[C@@H]1O [ribostamycin] | – | 35.6 µM
3 | Cc1ccc(C(=O)Nc2ccc(S(=O)(=O)O)c3cc(S(=O)(=O)O)cc(S(=O)(=O)O)c23)cc1NC(=O)c1cccc(NC(=O)Nc2cccc(C(=O)Nc3cc(C(=O)Nc4ccc(S(=O)(=O)O)c5cc(S(=O)(=O)O)cc(S(=O)(=O)O)c45)ccc3C)c2)c1 [suramin] | 74.2 µM | –
